In brackets after ≈: the same amount, converted by molar mass.
Columns and labels:
[1] = test system: Enterococcus faecalis (EFA); assay: MIC, two-fold agar dilution (CLSI), clinical isolates; assay type: cell-based
Summary of the method: (§1)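 Samples are serially diluted two-fold in agar following CLSI guidance. Plates are then inoculated with the tested strains. The lowest inhibiting concentration is recorded as MIC.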

[2] = test system: Escherichia coli (including ESBLs, non-ESBLs); assay: as above; assay type: cell-based
Summary of the method: as §1

[3] = test system: methicillin-resistant Staphylococcus aureus (MRSA); assay: as above; assay type: cell-based
Summary of the method: as §1

[4] = test system: methicillin-resistant Staphylococcus epidermidis (MRSE); assay: as above; assay type: cell-based
Summary of the method: as §1

[5] = test system: methicillin-sensitive Staphylococcus aureus (MSSA); assay: as above; assay type: cell-based
Summary of the method: as §1

[6] = test system: methicillin-sensitive Staphylococcus epidermidis (MSSE); assay: as above; assay type: cell-based
Summary of the method: as §1

[7] = test system: HCT-116 colorectal cancer cell line; assay: CCK-8 proliferation inhibition; assay type: cell-based; details: Homo sapiens, HCT-116, 72 h, read-out: HCT116 inhibition rate/%
Summary of the method: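 Proliferation over 72 hours of compound treatment was measured with CCK-8 against a 1‰ DMSO control.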

[8] = test system: methemoglobin in blood samples of three healthy volunteers; assay: Toxicity on methemoglobin in vitro (whole blood with S9 and NADPH, absorbance at 630 nm); assay type: cell-based, human; details: 500 μM compound; whole blood + S9 + NADPH; 5 hours at 37° C.
Summary of the method: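 Fresh EDTA whole blood from three healthy volunteers incubated 5 h at 37 °C with human liver S9 (2 mg/mL), NADPH-generating system and compound at 500 μM final. Lysed in 1% Triton X-100; MetHb % from 630 nm absorbance relative to ferricyanide-oxidized blood.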

[9] = test system: the test strains; assay: MIC against the test strains (strain not given); assay type: cell-based; details: read-out: MIC (azole amide bioisosteres)
From the text: 1. The invention adopts the two-fold agar dilution method recommended by the operating procedure of antimicrobial susceptibility testing set by American Clinical and Laboratory Standards Institute (CLSI) to determine the Minimum Inhibitory Concentration (MIC) of the test samples against the tested strains.

## CCCC[C@H](CN(O)C=O)C(=O)N1CC2(CC2)C[C@H]1c1nc2ccccc2[nH]1 [Example 10, N—((R)-2-((S)-6-(1H-benzimidazol-2-yl)-5-azaspiro[2.4]heptane-5-carbonyl)hexyl)-N-hydroxyformamide]
[1]; strain EFA 14-1
  MIC (anti-bacterial activity): 8 µg/mL (≈ 20.8 µM)
[1]; strain EFA 14-2
  MIC (anti-bacterial activity): 8 µg/mL (≈ 20.8 µM)
[1]; strain EFA 14-3
  MIC (anti-bacterial activity): 8 µg/mL (≈ 20.8 µM)
[1]; strain EFA 14-5
  MIC (anti-bacterial activity): 64 µg/mL (≈ 166 µM)
[2]; strain ECO+ 14-1
  MIC (anti-bacterial activity): 0.5 µg/mL (≈ 1.3 µM)
[2]; strain ECO+ 14-2
  MIC (anti-bacterial activity): 32 µg/mL (≈ 83.2 µM)
[2]; strain ECO− 14-1
  MIC (anti-bacterial activity): 32 µg/mL (≈ 83.2 µM)
[2]; strain ECO− 14-2
  MIC (anti-bacterial activity): 32 µg/mL (≈ 83.2 µM)
[3]; strain MRSA 14-1
  MIC (anti-bacterial activity): 1 µg/mL (≈ 2.6 µM)
[3]; strain MRSA 14-2
  MIC (anti-bacterial activity): 2 µg/mL (≈ 5.2 µM)
[3]; strain MRSA 14-4
  MIC (anti-bacterial activity): 2 µg/mL (≈ 5.2 µM)
[3]; strain MRSA 14-5
  MIC (anti-bacterial activity): 0.5 µg/mL (≈ 1.3 µM)
[3]; strain printed MRSA 14-1 (second line of that name, r23, before MRSE 14-2)
  MIC (anti-bacterial activity): 1 µg/mL (≈ 2.6 µM)
[4]; strain MRSE 14-2
  MIC (anti-bacterial activity): 1 µg/mL (≈ 2.6 µM)
[4]; strain MRSE 14-3
  MIC (anti-bacterial activity): 0.5 µg/mL (≈ 1.3 µM)
[4]; strain MRSE 14-4
  MIC (anti-bacterial activity): 1 µg/mL (≈ 2.6 µM)
[5]; strain MSSA 14-1
  MIC (anti-bacterial activity): 2 µg/mL (≈ 5.2 µM)
[5]; strain MSSA 14-2
  MIC (anti-bacterial activity): 2 µg/mL (≈ 5.2 µM)
[5]; strain MSSA 14-3
  MIC (anti-bacterial activity): 2 µg/mL (≈ 5.2 µM)
[5]; strain MSSA 14-4
  MIC (anti-bacterial activity): 2 µg/mL (≈ 5.2 µM)
[6]; strain MSSE 14-1
  MIC (anti-bacterial activity): 0.5 µg/mL (≈ 1.3 µM)
[6]; strain MSSE 14-2
  MIC (anti-bacterial activity): 2 µg/mL (≈ 5.2 µM)
[6]; strain MSSE 14-3
  MIC (anti-bacterial activity): 0.5 µg/mL (≈ 1.3 µM)
[6]; strain MSSE 14-4
  MIC (anti-bacterial activity): 2 µg/mL (≈ 5.2 µM)
[7]
  inhibition at 30 µM: 10%
[8]
  MetHb % (n = 3): 1.12 ± 0.01%
[9]
  MIC: 0.5 to 2 µg/mL (≈ 1.3 to 5.2 µM)
